The values below come from ChEMBL document CHEMBL5465560, “Selectivity Literature for EUbOPEN Chemogenomic Library” (2024).

Test [1] concerns the target Phosphatidylinositol 4,5-bisphosphate 3-kinase catalytic subunit gamma isoform (Homo sapiens) (UniProt P48736). Briefly: Selectivity interaction (KinomeScan (DiscoverX)) EUB0000607a PIK3CG. The note with it: at 10 µM.
Test [2] has as its target MAP kinase-interacting serine/threonine-protein kinase 2 (Homo sapiens, UniProt Q9HBH9). Kind of test: Selectivity interaction (KinomeScan (DiscoverX)) EUB0000655a MKNK2. The note with it: at 10 µM.
For test [3], the target named is Myosin light chain kinase, smooth muscle (Homo sapiens, UniProt Q15746). Briefly: Selectivity interaction (KinomeScan (DiscoverX)) EUB0001619a MYLK. The note with it: at 1 µM.
In another test the target is D(3) dopamine receptor (Homo sapiens, UniProt P35462). Briefly: Selectivity interaction (Dopamine D3 receptor assay, human recombinant ) EUB0000877a DRD3.
Test [4] deals with T1, Dual specificity mitogen-activated protein kinase kinase 6 (Homo sapiens) (UniProt P52564).
T1 sequence (whole entry): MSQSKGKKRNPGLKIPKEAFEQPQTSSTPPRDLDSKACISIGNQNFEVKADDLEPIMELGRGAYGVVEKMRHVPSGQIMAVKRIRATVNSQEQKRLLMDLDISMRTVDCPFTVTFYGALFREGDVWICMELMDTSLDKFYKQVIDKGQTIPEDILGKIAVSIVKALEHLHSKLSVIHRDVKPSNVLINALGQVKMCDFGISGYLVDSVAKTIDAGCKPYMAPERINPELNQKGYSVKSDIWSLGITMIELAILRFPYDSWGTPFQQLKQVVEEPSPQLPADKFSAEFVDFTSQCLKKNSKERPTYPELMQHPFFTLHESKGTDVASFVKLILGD
Briefly: Selectivity interaction (ActivX KiNativ screen (kinase selectivity in THP-1 cell lysates)) EUB0000639a MAP2K6. The class given is subcellular. The note with it: lysate, at 0.04 µM.

Test [5] concerns the target Fibroblast growth factor receptor 3 (Homo sapiens, UniProt P22607). Briefly: Selectivity interaction (Kinase screening (Nanosyn)) EUB0000604a FGFR3.
For test [6], the target named is T2, Aurora kinase C (Homo sapiens) (UniProt Q9UQB9).
T2 sequence (whole entry): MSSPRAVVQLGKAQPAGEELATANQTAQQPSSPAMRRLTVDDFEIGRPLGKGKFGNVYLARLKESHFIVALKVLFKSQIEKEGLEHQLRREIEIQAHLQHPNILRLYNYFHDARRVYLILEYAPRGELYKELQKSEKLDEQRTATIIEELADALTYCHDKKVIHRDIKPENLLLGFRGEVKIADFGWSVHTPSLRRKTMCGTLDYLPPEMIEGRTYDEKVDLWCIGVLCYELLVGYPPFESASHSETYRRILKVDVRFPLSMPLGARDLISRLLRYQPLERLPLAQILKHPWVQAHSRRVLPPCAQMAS
The note with it: at 10 µM.

In test [7] the target is T3, MAP kinase-activated protein kinase 5 (Homo sapiens) (UniProt Q8IW41).
T3 sequence (whole entry): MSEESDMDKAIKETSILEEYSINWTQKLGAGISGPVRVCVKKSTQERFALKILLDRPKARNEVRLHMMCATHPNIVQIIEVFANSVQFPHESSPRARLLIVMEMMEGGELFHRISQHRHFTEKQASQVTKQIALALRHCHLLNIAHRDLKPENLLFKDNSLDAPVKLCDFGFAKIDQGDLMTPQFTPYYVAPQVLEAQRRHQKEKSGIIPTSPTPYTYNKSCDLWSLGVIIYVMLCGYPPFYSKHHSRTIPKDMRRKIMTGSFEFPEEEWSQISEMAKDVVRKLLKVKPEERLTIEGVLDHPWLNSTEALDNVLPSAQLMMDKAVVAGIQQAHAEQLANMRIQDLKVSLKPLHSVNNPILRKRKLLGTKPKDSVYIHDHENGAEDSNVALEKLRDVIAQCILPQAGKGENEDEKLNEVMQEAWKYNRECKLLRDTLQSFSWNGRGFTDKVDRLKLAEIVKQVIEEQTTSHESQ
Kind of test: Selectivity interaction (ProQinase) EUB0000171b MAPKAPK5.

Test [8] concerns the target T4, Bromodomain-containing protein 1 (Homo sapiens) (UniProt O95696).
T4 sequence (whole entry): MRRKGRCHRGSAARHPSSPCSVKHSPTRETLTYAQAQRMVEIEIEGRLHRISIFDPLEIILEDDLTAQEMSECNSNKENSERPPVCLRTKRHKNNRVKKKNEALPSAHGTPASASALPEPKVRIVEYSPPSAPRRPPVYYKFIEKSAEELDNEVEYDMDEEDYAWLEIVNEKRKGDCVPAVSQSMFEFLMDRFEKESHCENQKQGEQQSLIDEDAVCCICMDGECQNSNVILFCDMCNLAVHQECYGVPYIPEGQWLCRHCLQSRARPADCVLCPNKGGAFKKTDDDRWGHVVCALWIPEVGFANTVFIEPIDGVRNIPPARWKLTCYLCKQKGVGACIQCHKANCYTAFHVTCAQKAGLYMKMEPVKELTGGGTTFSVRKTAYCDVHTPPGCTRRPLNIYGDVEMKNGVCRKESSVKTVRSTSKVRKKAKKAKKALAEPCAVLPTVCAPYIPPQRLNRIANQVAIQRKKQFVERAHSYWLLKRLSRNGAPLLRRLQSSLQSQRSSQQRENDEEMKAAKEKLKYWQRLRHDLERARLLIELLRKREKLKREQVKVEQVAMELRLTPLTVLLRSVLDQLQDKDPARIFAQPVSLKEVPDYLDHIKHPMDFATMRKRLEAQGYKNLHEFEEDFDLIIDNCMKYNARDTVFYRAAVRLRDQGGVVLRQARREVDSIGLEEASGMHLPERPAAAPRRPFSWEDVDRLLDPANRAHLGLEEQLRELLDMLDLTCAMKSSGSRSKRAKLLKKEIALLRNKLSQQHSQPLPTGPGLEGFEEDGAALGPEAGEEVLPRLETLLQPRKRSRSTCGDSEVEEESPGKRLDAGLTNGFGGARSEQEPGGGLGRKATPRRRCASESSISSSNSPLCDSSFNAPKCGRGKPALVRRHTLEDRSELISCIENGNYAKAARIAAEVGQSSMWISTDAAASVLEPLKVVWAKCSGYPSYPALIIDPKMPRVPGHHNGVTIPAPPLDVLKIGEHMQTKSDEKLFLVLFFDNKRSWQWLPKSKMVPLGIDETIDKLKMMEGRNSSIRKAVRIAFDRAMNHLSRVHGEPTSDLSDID
Briefly: Selectivity interaction (Bromodomain panel (DSF asssay)) EUB0000270b BRD1.

The target of test [9] is Receptor tyrosine-protein kinase erbB-4 (Homo sapiens, UniProt Q15303). Kind of test: Selectivity interaction (Upstate Kinase Profiler service (Millipore)) EUB0000056c ERBB4. The note with it: at 1 µM.

Each structure is given as a SMILES string.

Sequence of D(3) dopamine receptor (P35462 whole entry): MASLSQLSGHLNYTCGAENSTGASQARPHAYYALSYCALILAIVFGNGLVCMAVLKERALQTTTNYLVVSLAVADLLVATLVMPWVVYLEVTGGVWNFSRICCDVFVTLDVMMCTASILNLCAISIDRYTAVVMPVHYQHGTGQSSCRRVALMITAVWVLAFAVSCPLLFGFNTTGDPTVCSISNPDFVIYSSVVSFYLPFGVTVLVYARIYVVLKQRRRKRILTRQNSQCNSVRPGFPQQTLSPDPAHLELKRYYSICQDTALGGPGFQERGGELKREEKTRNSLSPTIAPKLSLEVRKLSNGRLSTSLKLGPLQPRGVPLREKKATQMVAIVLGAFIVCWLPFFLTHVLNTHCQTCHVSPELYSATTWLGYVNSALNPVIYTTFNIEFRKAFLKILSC
Sequence of Fibroblast growth factor receptor 3 (P22607 23-806 limits assumed): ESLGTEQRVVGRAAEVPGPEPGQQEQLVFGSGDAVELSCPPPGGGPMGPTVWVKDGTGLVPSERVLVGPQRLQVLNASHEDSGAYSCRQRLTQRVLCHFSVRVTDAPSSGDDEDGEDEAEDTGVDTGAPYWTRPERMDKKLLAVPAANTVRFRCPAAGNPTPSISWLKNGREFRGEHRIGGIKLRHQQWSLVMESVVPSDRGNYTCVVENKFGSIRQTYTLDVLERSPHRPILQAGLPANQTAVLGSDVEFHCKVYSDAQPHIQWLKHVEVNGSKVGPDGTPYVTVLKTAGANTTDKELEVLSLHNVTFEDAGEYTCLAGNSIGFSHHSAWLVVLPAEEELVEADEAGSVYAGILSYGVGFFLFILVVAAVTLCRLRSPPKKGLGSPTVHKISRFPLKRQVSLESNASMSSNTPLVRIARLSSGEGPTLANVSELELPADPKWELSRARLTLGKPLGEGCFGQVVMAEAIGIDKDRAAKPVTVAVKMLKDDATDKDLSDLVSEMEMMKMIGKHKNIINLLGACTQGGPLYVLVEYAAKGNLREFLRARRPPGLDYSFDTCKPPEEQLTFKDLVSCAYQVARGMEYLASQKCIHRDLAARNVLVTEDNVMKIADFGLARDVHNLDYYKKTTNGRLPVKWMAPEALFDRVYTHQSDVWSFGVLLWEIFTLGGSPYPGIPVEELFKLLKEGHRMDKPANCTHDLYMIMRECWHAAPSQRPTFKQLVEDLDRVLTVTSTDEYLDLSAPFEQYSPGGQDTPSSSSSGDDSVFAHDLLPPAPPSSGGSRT
Sequence of Myosin light chain kinase, smooth muscle (Q15746 whole entry): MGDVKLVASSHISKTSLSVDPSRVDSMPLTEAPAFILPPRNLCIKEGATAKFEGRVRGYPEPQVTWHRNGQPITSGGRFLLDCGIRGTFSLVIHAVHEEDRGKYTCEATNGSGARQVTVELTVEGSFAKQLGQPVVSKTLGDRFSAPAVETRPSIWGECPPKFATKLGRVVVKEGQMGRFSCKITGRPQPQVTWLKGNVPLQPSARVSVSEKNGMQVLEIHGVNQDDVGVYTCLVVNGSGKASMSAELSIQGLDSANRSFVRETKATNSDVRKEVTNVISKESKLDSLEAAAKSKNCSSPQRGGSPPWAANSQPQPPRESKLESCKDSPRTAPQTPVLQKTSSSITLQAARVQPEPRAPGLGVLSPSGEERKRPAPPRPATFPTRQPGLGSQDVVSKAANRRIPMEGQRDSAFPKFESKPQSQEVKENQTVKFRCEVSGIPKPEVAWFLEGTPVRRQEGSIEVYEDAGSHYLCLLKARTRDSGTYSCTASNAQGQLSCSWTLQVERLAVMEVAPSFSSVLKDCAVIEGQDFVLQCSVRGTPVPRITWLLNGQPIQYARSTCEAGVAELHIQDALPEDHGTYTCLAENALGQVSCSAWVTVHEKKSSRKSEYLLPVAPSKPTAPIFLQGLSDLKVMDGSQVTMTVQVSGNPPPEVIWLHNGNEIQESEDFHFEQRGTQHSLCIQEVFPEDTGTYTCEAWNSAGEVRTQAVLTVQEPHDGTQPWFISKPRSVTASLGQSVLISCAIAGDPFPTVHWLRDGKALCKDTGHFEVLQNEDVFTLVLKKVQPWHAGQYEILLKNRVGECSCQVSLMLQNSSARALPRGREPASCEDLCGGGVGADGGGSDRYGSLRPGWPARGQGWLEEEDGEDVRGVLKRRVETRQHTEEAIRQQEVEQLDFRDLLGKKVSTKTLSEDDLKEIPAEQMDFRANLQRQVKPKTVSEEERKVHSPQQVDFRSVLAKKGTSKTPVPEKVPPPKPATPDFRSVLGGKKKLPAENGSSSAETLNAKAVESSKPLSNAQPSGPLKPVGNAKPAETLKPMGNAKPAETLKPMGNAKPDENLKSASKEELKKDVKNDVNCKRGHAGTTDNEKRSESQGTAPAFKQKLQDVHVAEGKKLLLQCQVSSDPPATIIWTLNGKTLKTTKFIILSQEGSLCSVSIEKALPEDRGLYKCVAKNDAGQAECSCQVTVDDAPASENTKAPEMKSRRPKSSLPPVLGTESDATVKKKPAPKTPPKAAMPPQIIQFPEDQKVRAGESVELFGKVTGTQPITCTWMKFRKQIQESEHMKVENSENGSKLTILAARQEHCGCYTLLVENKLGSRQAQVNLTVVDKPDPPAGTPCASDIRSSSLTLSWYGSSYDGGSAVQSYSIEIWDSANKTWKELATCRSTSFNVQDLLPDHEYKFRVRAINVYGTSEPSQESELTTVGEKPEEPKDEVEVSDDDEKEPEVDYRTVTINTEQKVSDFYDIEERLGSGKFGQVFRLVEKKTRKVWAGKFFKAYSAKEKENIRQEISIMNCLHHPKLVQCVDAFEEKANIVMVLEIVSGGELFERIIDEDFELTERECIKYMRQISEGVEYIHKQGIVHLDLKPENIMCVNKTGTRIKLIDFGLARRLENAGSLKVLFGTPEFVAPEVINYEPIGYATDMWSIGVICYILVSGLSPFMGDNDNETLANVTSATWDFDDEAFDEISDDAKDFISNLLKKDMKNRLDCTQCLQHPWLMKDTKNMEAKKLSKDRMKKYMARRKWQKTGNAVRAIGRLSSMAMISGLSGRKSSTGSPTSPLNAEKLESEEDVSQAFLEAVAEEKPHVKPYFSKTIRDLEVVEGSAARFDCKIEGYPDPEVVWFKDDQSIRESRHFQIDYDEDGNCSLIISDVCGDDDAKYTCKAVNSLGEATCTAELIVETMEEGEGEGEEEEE
Sequence of Receptor tyrosine-protein kinase erbB-4 (Q15303 whole entry): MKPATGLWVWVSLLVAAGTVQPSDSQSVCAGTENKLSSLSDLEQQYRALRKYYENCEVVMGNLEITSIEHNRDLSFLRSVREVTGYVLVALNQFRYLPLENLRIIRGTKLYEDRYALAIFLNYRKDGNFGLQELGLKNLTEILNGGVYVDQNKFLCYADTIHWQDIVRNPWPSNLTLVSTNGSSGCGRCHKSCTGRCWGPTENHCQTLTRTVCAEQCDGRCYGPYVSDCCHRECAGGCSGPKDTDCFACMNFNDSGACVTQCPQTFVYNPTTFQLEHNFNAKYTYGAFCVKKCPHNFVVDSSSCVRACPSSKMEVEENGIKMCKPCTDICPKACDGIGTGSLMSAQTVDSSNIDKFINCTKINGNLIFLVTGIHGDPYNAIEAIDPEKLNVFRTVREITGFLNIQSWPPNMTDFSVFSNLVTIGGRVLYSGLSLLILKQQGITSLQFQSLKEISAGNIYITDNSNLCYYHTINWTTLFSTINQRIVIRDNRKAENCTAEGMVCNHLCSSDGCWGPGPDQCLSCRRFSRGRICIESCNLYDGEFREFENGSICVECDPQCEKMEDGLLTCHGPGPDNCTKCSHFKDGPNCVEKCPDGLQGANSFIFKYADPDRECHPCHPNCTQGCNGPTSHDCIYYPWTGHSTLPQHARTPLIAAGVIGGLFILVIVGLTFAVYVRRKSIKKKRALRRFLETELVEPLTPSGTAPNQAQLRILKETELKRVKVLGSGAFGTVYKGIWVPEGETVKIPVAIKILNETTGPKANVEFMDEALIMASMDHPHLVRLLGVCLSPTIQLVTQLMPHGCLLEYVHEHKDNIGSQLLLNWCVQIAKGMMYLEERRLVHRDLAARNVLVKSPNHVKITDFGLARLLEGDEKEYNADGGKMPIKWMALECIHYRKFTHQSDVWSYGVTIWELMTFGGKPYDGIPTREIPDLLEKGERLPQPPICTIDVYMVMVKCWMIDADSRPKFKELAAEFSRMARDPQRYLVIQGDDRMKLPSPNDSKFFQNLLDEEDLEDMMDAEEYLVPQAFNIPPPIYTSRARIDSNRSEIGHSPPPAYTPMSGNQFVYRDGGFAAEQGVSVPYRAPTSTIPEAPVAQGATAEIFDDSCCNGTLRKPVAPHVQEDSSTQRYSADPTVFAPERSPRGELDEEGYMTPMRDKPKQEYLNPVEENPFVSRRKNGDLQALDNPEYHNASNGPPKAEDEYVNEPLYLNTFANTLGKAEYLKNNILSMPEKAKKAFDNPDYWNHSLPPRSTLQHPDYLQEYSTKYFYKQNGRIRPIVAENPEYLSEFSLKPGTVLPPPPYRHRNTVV
Sequence of MAP kinase-interacting serine/threonine-protein kinase 2 (Q9HBH9 whole entry, looked up): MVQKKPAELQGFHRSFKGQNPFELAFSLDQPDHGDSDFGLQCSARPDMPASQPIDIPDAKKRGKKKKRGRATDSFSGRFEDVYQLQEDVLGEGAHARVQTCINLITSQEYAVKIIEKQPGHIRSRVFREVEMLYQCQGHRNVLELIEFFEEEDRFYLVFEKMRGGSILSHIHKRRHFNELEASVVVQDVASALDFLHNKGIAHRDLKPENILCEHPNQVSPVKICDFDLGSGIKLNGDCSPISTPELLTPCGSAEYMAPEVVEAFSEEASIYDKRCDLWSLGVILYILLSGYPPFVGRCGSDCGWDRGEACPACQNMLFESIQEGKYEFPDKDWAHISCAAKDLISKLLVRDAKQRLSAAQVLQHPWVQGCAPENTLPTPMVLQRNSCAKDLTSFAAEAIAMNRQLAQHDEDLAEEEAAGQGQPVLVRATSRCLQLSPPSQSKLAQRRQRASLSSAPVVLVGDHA

On to `CNC(=O)Nc1ccc(-c2nc(N3CC4CCC(C3)O4)c3cnn(C4CCC5(CC4)OCCO5)c3n2)cc1`, for which the % of control in [1] turned out to be 72%.

`CN(C)CCOc1ccc(-c2nc(-c3ccncc3)c(-c3ccc4c(c3)CC/C4=N\O)[nH]2)cc1` registered a % of control in test [2] of 95%.

In turn, `N#Cc1cccc(-c2c[nH]c3ncnc(N4CCOCC4)c23)c1` registered a % of control in test [3] of 93%.

As a reminder, the IC50 is the midpoint of a concentration-inhibition curve. `CCC(=O)N1CC[C@H](Nc2ncnc3c2CN(c2cnc(OC)c(C(F)(F)F)c2)CC3)C1` [LENIOLISIB]: the IC50 on D(3) dopamine receptor was above 30 µM.

Compound `CC[C@@H]1[C@H](F)C(=O)N[C@@H]1COc1nccc2cc(C(N)=O)c(OC)cc12` [ZIMLOVISERTIB] yielded a % of inhibition in test [4] of 4.7%.

Compound `Cc1cnc(Nc2ccc(F)cc2Cl)nc1-c1c[nH]c(C(=O)N[C@H](CO)c2cccc(Cl)c2)c1` registered a % of inhibition in test [5] of 8%.

For `CCN(CC)CCCCNc1ncc2cc(-c3cc(OC)cc(OC)c3)c(NC(=O)NC(C)(C)C)nc2n1`, the % of control in [6] was determined as 100%.

As for `C=CC(=O)Nc1cccc(C(=O)Nc2ccc(Nc3cc(-c4[nH]c(SC)nc4C)ccn3)cc2)c1`, the % of control in [7] (at 1 µM) is 96%; in [7] (at 5 µM), 97%.

In test [8], `Cc1cc(CN)cc(C)c1-c1ncn(C)c1-c1cncn1C` came in with a dTM of -2.24 K.

`Cc1ccc(-c2ccc3c(ccc4sc5c(c43)NC[C@@H](C)NC5=O)n2)cn1`: in test [9], the % of inhibition turned out to be 12%.
